According to article doi:10.1101/2025.03.03.641193, “Trihydroxybenzaldoximes are redox cycling inhibitors of ThDP-dependent DXP synthase” (bioRxiv, 2025):

How the values were obtained:
EcDXPS = target: T1, EcDXPS (Escherichia coli, UniProt P77488); test: DXPS-IspC coupled assay, aerobic, WT EcDXPS; format: biochemical, E. coli
T1 construct: made in house
Method: (§1) Inhibitory activity of compounds against DXPS were monitored via a continuous spectrophotometric coupled assay with DXPS and IspC as previously described.[41],[42] Briefly, Reaction mixtures containing HEPES (100 mM, pH 8.0), MgCl2 (2 mM), NaCl (5 mM), ThDP (1 mM), BSA (1 mg/mL), DXPS (125–500 nM), IspC (1.7 μM), NADPH (160 μM), DMSO (5%, v/v), and inhibitor (0–200 μM) were preincubated at 25 °C (or chamber temperature 25–30 °C) for 5 min. Enzymatic reactions were initiated via the addition of 20 μL of a 10x substrate mix for a final well volume of 200 μL. Reactions were performed in triplicate unless otherwise noted. See the following sections for details and modifications.
When varying pyruvate (0–500 μM), GAP was maintained at 50 μM (3 mM for R478A). When varying GAP (0–500 μM), pyruvate was maintained at 500 μM. The following [DXPS] were used when varying 1: WT EcDXPS, R478A, H431A, D427A (200 nM), R99A (500 nM), WT DrDXPS, WT PaDXPS (150 nM). […] Reactions were incubated and initiated as described above. Immediately following initiation, NADPH depletion was monitored at 340 nm at 25 °C for 7–10 min with a 14–20 second time interval. Initial velocities of DXP formation were determined from the linear portion of the NADPH decay. […] Initial velocities were plotted vs. substrate concentration, and the data were fit to equation 1 (mixed model), 2 (competitive), or 3 (uncompetitive) based on the calculated α value and goodness of fit in GraphPad Prism. Reported standard errors of the mean for Kis are calculated from three replicates.

WT EcDXPS = target: T2, WT EcDXPS (Escherichia coli, UniProt P77488); test: Anaerobic apparent Ki, DXPS-IspC coupled assay; format: biochemical, E. coli
T2 construct: made in house
Method: as §1
Reaction components were brought into the anaerobic chamber and allowed to deoxygenate for ~2 hours. WT EcDXPS was used at 125 nM. When varying pyruvate (0–500 μM), GAP was maintained at 50 μM. When varying GAP (0–500 μM), pyruvate was maintained at 500 μM. Reactions were incubated and initiated as described above. Immediately following initiation, NADPH depletion was monitored at 340 nm at chamber temperature (25–30 °C) for 5 min with a ~17 second time interval. Initial velocities of DXP formation were determined as above, plotted vs. substrate concentration, and the data were fit to either equation 2, or 3 based on the calculated α value and goodness of fit in GraphPad Prism. Reported standard errors of the mean for Kis are calculated from three replicates.

R99A DXPS = target: T3, R99A DXPS (Escherichia coli, UniProt P77488, R99A); test: DXPS-IspC coupled assay, R99A variant; format: biochemical, E. coli
T3 construct: made in house
Method: (§2) To determine the role of active site network residues in the activity of oximes, inhibitory activity of 1 was assessed against EcD427A, EcH431A, and EcR99A by the DXPS-IspC coupled assay[41],[42] (Fig 4B, S3, Table S1). Ki determination was performed by varying [pyruvate] in order to assess the impact of residue substitutions on the uncompetitive mode of inhibition. […] (8.7 ± 1.2 μM, Fig S3, Table S1).
as §1
When varying pyruvate (0–500 μM), GAP was maintained at 50 μM (3 mM for R478A). When varying GAP (0–500 μM), pyruvate was maintained at 500 μM. The following [DXPS] were used when varying 1: WT EcDXPS, R478A, H431A, D427A (200 nM), R99A (500 nM), WT DrDXPS, WT PaDXPS (150 nM). Analogs 3 and 4 were tested using WT EcDXPS (150 nM). Reactions were incubated and initiated as described above. Immediately following initiation, NADPH depletion was monitored at 340 nm at 25 °C for 7–10 min with a 14–20 second time interval. Initial velocities of DXP formation were determined from the linear portion of the NADPH decay. Initial velocities were arithmetically corrected for background for compound 4. Initial velocities were plotted vs. substrate concentration, and the data were fit to equation 1 (mixed model), 2 (competitive), or 3 (uncompetitive) based on the calculated α value and goodness of fit in GraphPad Prism. Reported standard errors of the mean for Kis are calculated from three replicates.

D427A DXPS = target: T4, D427A DXPS (Escherichia coli, UniProt P77488, D427A); test: DXPS-IspC coupled assay, D427A variant; format: biochemical, E. coli
T4 construct: made in house
Method: as §2
Inhibitory activity of compounds against DXPS were monitored via a continuous spectrophotometric coupled assay with DXPS and IspC as previously described.[41],[42] […]
When varying pyruvate (0–500 μM), GAP was maintained at 50 μM (3 mM for R478A). […] Immediately following initiation, NADPH depletion was monitored at 340 nm at 25 °C for 7–10 min with a 14–20 second time interval. Initial velocities of DXP formation were determined from the linear portion of the NADPH decay. […] Initial velocities were plotted vs. substrate concentration, and the data were fit to equation 1 (mixed model), 2 (competitive), or 3 (uncompetitive) based on the calculated α value and goodness of fit in GraphPad Prism. Reported standard errors of the mean for Kis are calculated from three replicates.

[1] = NMR detection of redox state of 1; format: physicochemical
Method: NMR experiments were performed as previously described[16],[24] with the following modifications. Experiments were performed aerobically unless otherwise noted. Anaerobic experiments were performed in the anaerobic chamber up to the point of transfer to NMR tubes which were capped with rubber septa to exclude oxygen once removed from the chamber. […] Solutions were also prepared aerobically in the presence of ascorbate (5 mM) and CAT (0.25 mg/mL). Oxime 1 (500 μM) was then added and solutions were incubated at 4 °C for 20 min. After incubation, 600 μL of each solution were transferred to labeled NMR tubes. 1D ^1H-NMR and 1D ^1H detected H{^13C} and H3{^13C} spectra via a proton multiplicity filter, which selects for ^13C nuclei attached to an odd number of protons, were acquired on a Bruker Avance 600 MHz or a Bruker Avance NEO 600 MHz spectrometer (HEPES anaerobic and Tris anaerobic) equipped with a TCI cryogenic probe equipped with z-gradients with a cryo-cooled ^13C preamplifier, resulting in high sensitivity for ^13C detection. Spectra were acquired at 600 MHz (^1H) and 150 MHz (^13C), at 25 °C utilizing a 90° ^1H excitation pulse (optimized for maximum signal-to-noise per unit time), 128 scans/FID (^1H-NMR), 200 ms acquisition time/FID, and a 3s relaxation day between successive scans, or 64 scans/FID (^1H detected H{^13C} and H3{^13C}), 200 ms acquisition time/FID, and a 5s relaxation day between successive scans.

ON=Cc1cc(O)c(O)cc1O [compound 1, 2,4,5-trihydroxybenzaldoxime]
%Inhibition at 200 μM 1 (EcDXPS; WT DXPS, HEPES pH 8, 200 μM): ~ 79%
MOI varying D-GAP (EcDXPS; WT EcDXPS, aerobic): competitive
MOI varying pyruvate (EcDXPS; WT EcDXPS, aerobic): uncompetitive
inhibition at 200 µM (EcDXPS; pH 8, read-out: %Inhibition at 200 μM 1, WT DXPS, HEPES pH 8, 200 μM): 79.2 ± 0.2%
Ki (+O2)/ Ki (-O2) (WT EcDXPS; - O2): ~ 10
MOI varying D-GAP (WT EcDXPS; anaerobic, WT EcDXPS): competitive
MOI varying pyruvate (WT EcDXPS; anaerobic, WT EcDXPS): uncompetitive
MOI varying D-GAP (R99A DXPS; EcR99A): competitive
MOI varying pyruvate (R99A DXPS; EcR99A): uncompetitive
Ki (R99A DXPS; Ki Vary Pyruvate, R99A, pyruvate 0–500 μM): 30 ± 1 µM
Ki (R99A DXPS; Ki varying [D-GAP], R99A, GAP 0–500 μM, pyruvate 500 μM): 8.7 ± 1.2 µM
Ki/Ki^wt (R99A DXPS; R99A, vary pyruvate, fold reduction in potency vs WT): ~ 6
fold reduction in potency relative to WT (R99A DXPS; R99A, varying [D-GAP]): 4 fold
Ki (D427A DXPS): 4.8 ± 0.2 µM
MOI varying pyruvate (D427A DXPS; EcD427A): uncompetitive
redox state by 1H-NMR ([1]; 500 μM, HEPES 50 mM pH 8, aerobic): partially
redox state by 1H-NMR ([1]; 500 μM, HEPES pH 8, aerobic, ascorbate 5 mM): reduced
redox state by 1H-NMR ([1]; 500 μM, HEPES pH 8, aerobic, catalase 0.25 mg/mL): mostly oxidized
redox state by 1H-NMR ([1]; 500 μM, Tris 50 mM pH 8, aerobic): mostly
redox state by 1H-NMR ([1]; 500 μM, acidic pH (MES pH 6.2), aerobic): mostly reduced
redox state by 1H-NMR ([1]; 500 μM, neutral and basic pH (phosphate pH 7, CHES pH 9), aerobic): oxidized
redox state by 1H-NMR ([1]; 12.5 mM, HEPES 100 mM pH 8, aerobic): primarily in the reduced state
redox state by 1H-NMR ([1]; anaerobic conditions): primarily in its reduced form
